According to ChEMBL document CHEMBL1201862, “PubChem BioAssay data set” (2004):
Calls of active or inactive are those of the source.

Legend:
[1] = target: Photoreceptor-specific nuclear receptor (Homo sapiens, UniProt Q9Y5X4); assay type: functional, cell-based;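 further: CHO-S cells with Gal4-NCOR and VP16-NR2E3 two-hybrid luciferase reporter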
INS1 = assay: beta cell apoptosis inhibitors, cytokine rescue, dose response, luminescence, retest (AID 449756); assay type: functional, cell-based; conditions: Rattus norvegicus;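 further: cell death triggered by IL-1 beta plus TNF-alpha plus IFN-gamma mixture; protective hits raise ATP signal compared with cytokine alone wells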
[2] = cytotoxicity toward NIH3T3 fibroblasts, dose response, counter-screen, cell-based, ATP luminescence, mouse fibroblasts (AID 2010); assay type: functional; conditions: NIH3T3;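 further: cells exposed to compound for about 90 hours before reading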
[3] = inhibitors of intracellular T. cruzi replication, confirmation, NIH3T3 host cells, beta-gal luminescence (AID 2044); assay type: functional, cell-based;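 further: intracellular parasites grown in NIH/3T3 mouse fibroblasts as host cells; luminescent beta-galactosidase reporter signal from transgenic T. cruzi replicating inside host cells; inhibitors lower the luminescence signal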
[4] = target: T1, Corticotropin-releasing factor receptor 2/Corticotropin-releasing factor-binding protein (Homo sapiens, UniProt P24387+Q13324); assay: activators of CRF receptor 2 with binding protein – uHTS hits, confirmation (AID 602473); assay type: functional; conditions: read-out: EC50_Mean
T1 sequence (Q13324 whole entry): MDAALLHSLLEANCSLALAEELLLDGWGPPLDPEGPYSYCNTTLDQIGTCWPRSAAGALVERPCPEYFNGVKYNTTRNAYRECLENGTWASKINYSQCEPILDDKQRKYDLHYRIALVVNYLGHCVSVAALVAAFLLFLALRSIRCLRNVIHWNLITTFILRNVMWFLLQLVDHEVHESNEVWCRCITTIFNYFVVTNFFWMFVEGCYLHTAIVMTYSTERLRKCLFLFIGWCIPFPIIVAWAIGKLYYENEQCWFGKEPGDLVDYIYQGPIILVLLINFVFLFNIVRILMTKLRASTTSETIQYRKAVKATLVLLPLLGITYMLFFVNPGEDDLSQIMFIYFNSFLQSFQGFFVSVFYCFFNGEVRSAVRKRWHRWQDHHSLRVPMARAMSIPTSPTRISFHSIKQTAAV
T1 sequence (P24387 whole entry): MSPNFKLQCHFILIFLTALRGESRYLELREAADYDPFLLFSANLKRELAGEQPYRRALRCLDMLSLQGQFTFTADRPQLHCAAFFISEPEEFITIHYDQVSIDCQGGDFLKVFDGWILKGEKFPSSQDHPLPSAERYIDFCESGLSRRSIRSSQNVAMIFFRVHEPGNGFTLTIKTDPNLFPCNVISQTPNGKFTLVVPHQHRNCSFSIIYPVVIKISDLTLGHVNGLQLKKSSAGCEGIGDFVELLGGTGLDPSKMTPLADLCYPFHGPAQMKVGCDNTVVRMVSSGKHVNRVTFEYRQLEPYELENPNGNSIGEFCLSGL

[5] = target: T1, Corticotropin-releasing factor receptor 2/Corticotropin-releasing factor-binding protein; assay: Dose Response confirmation of uHTS hits for small molecule antagonists of the CRF-binding protein and CRF-R2 receptor complex.; assay type: functional; conditions: read-out: IC50_Mean
[6] = CRF-BP/CRF-R2 complex antagonists, dose response, cell-based, uHTS hits, 384-well (AID 651639); assay type: functional, Homo sapiens; conditions: read-out: IC50_Mean
[7] = miR-122 activators in hepatoma reporter cells, dose response, cell-based, Huh7 psiCHECK-miR122, Renilla luciferase, cherry-picked (AID 651956); assay type: functional;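 further: huh7 hepatoma cells stably carrying a psiCHECK-2 miR-122 sensor plasmid; renilla luciferase signal reporting endogenous miR-122 activity after 48 h compound exposure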
Genome polyprotein = Genome polyprotein (dengue virus type 2, UniProt P29990); assay: Dengue-2 NS5 methyltransferase inhibitors, primary screen, biochemical, confirmation dose response (AID 588689); assay type: functional
Chain of Genome polyprotein (P29990 2492-3391 limits assumed): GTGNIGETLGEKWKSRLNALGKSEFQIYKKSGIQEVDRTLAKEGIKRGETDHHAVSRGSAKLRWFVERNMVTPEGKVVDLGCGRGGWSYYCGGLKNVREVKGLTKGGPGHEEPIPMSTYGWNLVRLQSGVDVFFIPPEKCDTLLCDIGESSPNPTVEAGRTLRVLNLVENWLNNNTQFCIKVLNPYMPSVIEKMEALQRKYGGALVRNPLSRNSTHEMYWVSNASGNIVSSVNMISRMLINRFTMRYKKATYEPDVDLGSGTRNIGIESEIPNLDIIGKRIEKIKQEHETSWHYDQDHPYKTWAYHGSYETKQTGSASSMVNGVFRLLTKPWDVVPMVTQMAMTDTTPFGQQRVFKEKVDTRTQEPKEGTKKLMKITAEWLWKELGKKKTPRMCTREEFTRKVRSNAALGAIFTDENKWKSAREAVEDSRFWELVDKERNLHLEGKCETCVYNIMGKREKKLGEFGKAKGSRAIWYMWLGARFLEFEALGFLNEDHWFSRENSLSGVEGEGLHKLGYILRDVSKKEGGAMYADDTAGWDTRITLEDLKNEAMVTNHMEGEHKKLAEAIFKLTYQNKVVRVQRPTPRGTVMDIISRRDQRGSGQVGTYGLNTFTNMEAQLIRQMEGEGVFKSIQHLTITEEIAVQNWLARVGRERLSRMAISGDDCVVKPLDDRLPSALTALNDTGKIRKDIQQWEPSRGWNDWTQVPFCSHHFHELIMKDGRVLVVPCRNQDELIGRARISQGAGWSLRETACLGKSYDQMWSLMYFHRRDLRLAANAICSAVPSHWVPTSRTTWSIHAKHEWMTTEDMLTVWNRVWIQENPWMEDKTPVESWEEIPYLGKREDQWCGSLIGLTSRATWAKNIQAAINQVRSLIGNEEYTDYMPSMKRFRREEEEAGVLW

Aminopeptidase N = target: T2, Aminopeptidase N (Plasmodium falciparum FcB1/Columbia, UniProt O96935); assay: P. falciparum M1AAP inhibitors, biochemical, fluorogenic H-Leu-NHMec substrate, 1536-well (AID 1445); set-up: species or system Plasmodium falciparum 3D7, 3D7
T2 sequence (O96935 whole entry): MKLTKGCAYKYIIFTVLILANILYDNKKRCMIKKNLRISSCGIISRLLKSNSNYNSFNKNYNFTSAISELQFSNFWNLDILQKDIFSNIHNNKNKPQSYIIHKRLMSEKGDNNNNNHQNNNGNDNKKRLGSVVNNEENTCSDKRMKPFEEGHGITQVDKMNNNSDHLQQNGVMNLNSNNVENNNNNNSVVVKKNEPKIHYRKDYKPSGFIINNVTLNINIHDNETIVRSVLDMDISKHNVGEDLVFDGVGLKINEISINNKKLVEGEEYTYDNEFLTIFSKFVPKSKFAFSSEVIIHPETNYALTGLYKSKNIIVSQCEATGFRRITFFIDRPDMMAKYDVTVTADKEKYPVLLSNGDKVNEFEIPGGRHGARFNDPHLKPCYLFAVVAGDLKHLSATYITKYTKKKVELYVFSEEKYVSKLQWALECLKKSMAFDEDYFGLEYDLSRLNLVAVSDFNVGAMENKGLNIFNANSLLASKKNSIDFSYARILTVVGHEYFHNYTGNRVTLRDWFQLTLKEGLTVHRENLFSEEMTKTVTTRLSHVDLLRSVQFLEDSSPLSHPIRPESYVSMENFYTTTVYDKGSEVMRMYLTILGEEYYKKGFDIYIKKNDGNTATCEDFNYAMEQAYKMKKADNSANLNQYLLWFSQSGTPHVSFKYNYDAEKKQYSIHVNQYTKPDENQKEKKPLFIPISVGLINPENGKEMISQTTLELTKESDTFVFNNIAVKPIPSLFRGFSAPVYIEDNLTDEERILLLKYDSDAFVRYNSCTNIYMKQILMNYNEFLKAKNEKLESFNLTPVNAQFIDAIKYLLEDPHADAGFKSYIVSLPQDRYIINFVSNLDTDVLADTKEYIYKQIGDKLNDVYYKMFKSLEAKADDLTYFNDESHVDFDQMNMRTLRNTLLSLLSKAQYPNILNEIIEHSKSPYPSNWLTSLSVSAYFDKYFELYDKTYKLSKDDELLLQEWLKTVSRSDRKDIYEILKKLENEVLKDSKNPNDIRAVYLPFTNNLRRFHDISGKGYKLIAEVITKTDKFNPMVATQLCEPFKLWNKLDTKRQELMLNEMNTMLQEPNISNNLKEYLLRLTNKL

[8] = target: T3, DNA repair protein RAD52 homolog (Homo sapiens, UniProt P43351); assay type: functional, biochemical
T3 sequence (P43351 whole entry): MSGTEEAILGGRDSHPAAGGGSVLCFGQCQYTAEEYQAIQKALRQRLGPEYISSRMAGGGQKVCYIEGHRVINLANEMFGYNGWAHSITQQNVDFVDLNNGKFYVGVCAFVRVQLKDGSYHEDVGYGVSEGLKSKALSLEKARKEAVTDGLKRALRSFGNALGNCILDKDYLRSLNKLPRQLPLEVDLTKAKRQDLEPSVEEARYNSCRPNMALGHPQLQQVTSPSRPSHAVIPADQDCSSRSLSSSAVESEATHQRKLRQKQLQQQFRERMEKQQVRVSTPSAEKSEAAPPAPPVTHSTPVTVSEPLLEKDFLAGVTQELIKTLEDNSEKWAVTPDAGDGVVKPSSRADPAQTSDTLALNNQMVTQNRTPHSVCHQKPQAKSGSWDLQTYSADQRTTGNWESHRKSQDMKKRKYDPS

[9] = target: T4, DNA repair and recombination protein RAD54-like (Homo sapiens, UniProt Q92698); assay: inhibitors of human RAD54 branch migration, confirmation, biochemical, fluorescence, cherry-picked samples, dose series (AID 651657); assay type: functional
T4 sequence (Q92698 whole entry): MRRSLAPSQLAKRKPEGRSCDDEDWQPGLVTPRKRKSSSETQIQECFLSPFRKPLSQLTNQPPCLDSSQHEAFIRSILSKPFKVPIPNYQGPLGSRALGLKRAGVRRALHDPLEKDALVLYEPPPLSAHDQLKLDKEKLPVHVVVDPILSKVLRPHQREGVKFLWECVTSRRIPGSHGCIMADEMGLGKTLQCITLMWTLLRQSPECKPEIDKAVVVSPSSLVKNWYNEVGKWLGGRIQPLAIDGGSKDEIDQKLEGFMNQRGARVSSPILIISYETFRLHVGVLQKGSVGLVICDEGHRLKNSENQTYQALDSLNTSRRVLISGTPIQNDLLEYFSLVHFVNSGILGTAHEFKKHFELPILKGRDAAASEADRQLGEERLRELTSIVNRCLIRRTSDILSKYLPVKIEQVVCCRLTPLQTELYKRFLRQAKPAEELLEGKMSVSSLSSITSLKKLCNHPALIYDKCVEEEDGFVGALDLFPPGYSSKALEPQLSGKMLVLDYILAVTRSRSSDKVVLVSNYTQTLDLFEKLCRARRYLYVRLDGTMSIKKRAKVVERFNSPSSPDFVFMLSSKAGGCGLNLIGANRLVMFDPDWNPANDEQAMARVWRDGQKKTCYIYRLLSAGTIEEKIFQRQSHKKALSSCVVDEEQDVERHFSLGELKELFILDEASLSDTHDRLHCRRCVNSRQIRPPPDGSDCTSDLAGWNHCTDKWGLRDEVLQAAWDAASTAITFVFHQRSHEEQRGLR

Chain of Photoreceptor-specific nuclear receptor (Q9Y5X4 whole entry, the tested form may be a part): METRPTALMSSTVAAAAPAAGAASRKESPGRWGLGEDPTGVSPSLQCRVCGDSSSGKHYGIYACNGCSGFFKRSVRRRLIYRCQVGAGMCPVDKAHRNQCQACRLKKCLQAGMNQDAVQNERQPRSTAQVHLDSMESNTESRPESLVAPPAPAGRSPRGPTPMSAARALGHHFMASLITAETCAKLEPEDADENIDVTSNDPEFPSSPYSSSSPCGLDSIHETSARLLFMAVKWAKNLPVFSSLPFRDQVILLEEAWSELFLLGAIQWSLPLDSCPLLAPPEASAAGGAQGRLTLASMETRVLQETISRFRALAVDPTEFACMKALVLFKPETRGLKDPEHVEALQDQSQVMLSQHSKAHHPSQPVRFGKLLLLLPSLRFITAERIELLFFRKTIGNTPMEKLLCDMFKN

| EC50 [4] | IC50 [5] | IC50 [6] | Compound | other results |
| --- | --- | --- | --- | --- |
| > 53 µM (inactive) | 23.2 µM (active) | 13.8 µM (active) | Cc1ccccc1NC(=O)Cc1nc(COC(=O)c2cc([N+](=O)[O-])ccc2NCCO)cs1 |  |
| > 53 µM (inactive) | 6.18 µM (active) | > 20 µM (inactive) | CCOc1ccc(/C=C2\SC(=S)N(NS(=O)(=O)c3ccc(C)cc3)C2=O)cc1OC | IC50 (Genome polyprotein): 58.3 µM (active); IC50 (Aminopeptidase N): 34.2 µM (active) |
| > 53 µM (inactive) | 5.69 µM (active) | > 20 µM (inactive) | COc1ccc(C(C(=O)NC2CCCC2)N(C(=O)c2ccoc2C)c2cc(C)cc(C)c2)cc1 (stereo not drawn) |  |

Second part, the molecule before the results:

| Compound | EC50 [4] | IC50 [5] | IC50 [6] | other results |
| --- | --- | --- | --- | --- |
| O=C(C1CCC(CNS(=O)(=O)c2cccc3nsnc23)CC1)N1CC=C(c2ccccc2)CC1 (stereo not drawn) |  |  |  | IC50 [1]: 3.8 µM (active) |
| CC(Oc1ccc(Br)cc1)c1nc2c3ccccc3nc(S)n2n1 (stereo not drawn) |  |  |  | AC50 (INS1): 7.23 µM (active); IC50 [1]: 3.74 µM (active) |
| Cc1ccc(S(=O)(=O)c2nnn3c2nc(N2CCCCC2)c2ccccc23)cc1 | > 53 µM (inactive) | 2.96 µM (active) | 10 µM (active) | EC50 [2]: > 60 µM (inconclusive); EC50 [3]: 1.14 µM (active) |
| Cc1nn(C)cc1NC(=O)C[C@@H]1CC[C@@H]2[C@@H](COc3ccc(NC(=O)Nc4cccc(Cl)c4)cc3C(=O)N2C)O1 |  |  |  | AC50 [7]: 22.8 µM (active) |
| COc1ccc(N2CCN(C(=O)CSc3nnc(CNc4ccccc4)o3)CC2)cc1 |  |  |  | AC50 [7]: 44.3 µM (active) |
| CN(C)CCNC(=O)c1cccc(-c2cnc3c(NC=O)cc(-c4ccc(F)cc4)cn23)c1 |  |  |  | AC50 [8]: 3.96 µM (active); AC50 [9]: 17.7 µM (active) |
